Reference: US20080058330A1, “Compounds and Combinations Thereof for Inhibiting Beta-Amyloid Production and Methods of Use Thereof” (Roskamp Research LLC, priority 2006, published 2008)

What was measured:
[1] = system: 7W WT APP751 CHO cells; experiment: Measurement of Aβ1-40 and Aβ1-42 by ELISA after treatment with calcium channel blockers (Example 1); format: cell-based, Chinese hamster
Experimental: Chinese hamster ovary (CHO) cells, stably transfected with human APP751 (7W WT APP751 CHO cells) were used. See, e.g., Koo and Squazzo, J. Biol. Chem., Vol. 269, Issue 26, 17386-17389, July, 1994. The cells were maintained in DMEM medium supplemented with 10% fetal bovine serum and IX mixture of penicillin/streptomycin/fungizone/glutamine mixture (Cambrex, Md.) geneticin as selecting agent in 75 cm^2 cell culture flasks.
The 7W WT APP751 CHO cells were plated in 24-well cell culture plates in quadruplicate, containing 1 ml of culture medium, and treated with various calcium channel blocker compounds for 4 hours, 24 hours or 48 hours at 37° C. and 5% CO2. […] The culture medium was collected and diluted 5-fold for the 4 hours assay and 50-fold for the 24 hour assay before being assayed by ELISAs for Aβ1-40 and Aβ1-42, respectively. Concentrations of Aβ1-40 and Aβ1-42, expressed in pg/ml, were determined using commercially available ELISAs (Biosource, Calif.) in a colorimetric assay using labeled antibodies detected spectrophotometrically.

[2] = 30 μM, cells plated at low density, 24 hours (FIG. 1C)
[3] = 30 μM, cells plated at low density, 48 hours (FIG. 1D)

Work on `CCOC(=O)C1=C(C)NC(C)=C(C(=O)OCC)C1c1cc(Cl)cc(Cl)c1` [Example 37, Diethyl 4-(3,5-dichlorophenyl)-1,4-dihydro-2,6-dimethylpyridine-3,5-dicarboxylate] yielded a melting point of 102 to 104 °C.
`CCOC(=O)C1=C(C)NC(C)=C(C(=O)OCC)C1c1cccc(F)c1F` [Example 38, Diethyl 4-(2,3-difluorophenyl)-1,4-dihydro-2,6-dimethylpyridine-3,5-dicarboxylate] gave a melting point of 161 to 162 °C.
For `CC1=C(C(=O)OC(C)(C)C)C(c2cccc(F)c2F)C(C(=O)OC(C)(C)C)=C(C)N1` [Example 39, Di-tert-butyl 4-(2,3-difluorophenyl)-1,4-dihydro-2,6-dimethylpyridine-3,5-dicarboxylate], the melting point was 192 to 194 °C.
Work on `C=CCOC(=O)C1=C(C)NC(C)=C(C(=O)OCC=C)C1c1ccc(Br)cc1` [Example 40, Diallyl 4-(4-bromophenyl)-1,4-dihydro-2,6-dimethylpyridine-3,5-dicarboxylate] yielded a melting point of 130 to 131 °C.
Work on `CCOC(=O)C1=C(C)NC(C)=C(C(=O)OCC)C1c1ccc(F)c(Br)c1` [Example 41, Diethyl 4-(3-bromo-4-fluorophenyl)-1,4-dihydro-2,6-dimethylpyridine-3,5-dicarboxylate] yielded a melting point of 118 to 119 °C.
With `CC1=C(C(=O)OC(C)(C)C)C(c2ccc(F)c(Br)c2)C(C(=O)OC(C)(C)C)=C(C)N1` [Example 42, Di-tert-butyl 4-(3-bromo-4-fluorophenyl)-1,4-dihydro-2,6-dimethylpyridine-3,5-dicarboxylate] the melting point was 171 to 172 °C.
`CCOC(=O)C1=C(C)NC(C)=C(C(=O)OCC)C1c1ccc(Br)cc1F` [Example 43, Diethyl 4-(4-bromo-2-fluorophenyl)-1,4-dihydro-2,6-dimethylpyridine-3,5-dicarboxylate] gave a melting point of 154 to 155 °C.
`CC1=C(C(=O)OC(C)(C)C)C(c2ccc(Br)cc2F)C(C(=O)OC(C)(C)C)=C(C)N1` [Example 44, Di-tert-butyl 4-(4-bromo-2-fluorophenyl)-1,4-dihydro-2,6-dimethylpyridine-3,5-dicarboxylate] gave a melting point of 187 to 188 °C.
`COCCOC(=O)C1=C(C)NC(C)=C(C(=O)OCCOC)C1c1cccc(Br)c1` [Example 45, Bis(2-methoxyethyl) 4-(3-bromophenyl)-1,4-dihydro-2,6-dimethylpyridine-3,5-dicarboxylate] showed a melting point of 124.5 to 125.5 °C.
In the case of `COCCOC(=O)C1=C(C)NC(C)=C(C(=O)OCCOC)C1c1ccc(Br)cc1` [Example 46, Bis(2-methoxyethyl) 4-(4-bromophenyl)-1,4-dihydro-2,6-dimethylpyridine-3,5-dicarboxylate], the melting point is reported as 116 to 117 °C.
`CCOC(=O)C1=C(C)NC(C)=C(C(=O)OCC)C1c1cc(Br)ccc1F` [Example 47, Diethyl 4-(5-bromo-2-fluorophenyl)-1,4-dihydro-2,6-dimethylpyridine-3,5-dicarboxylate] showed a melting point of 118 to 119 °C.
For `CC1=C(C(=O)OC(C)(C)C)C(c2cc(Br)ccc2F)C(C(=O)OC(C)(C)C)=C(C)N1` [Example 48, Di-tert-butyl 4-(5-bromo-2-fluorophenyl)-1,4-dihydro-2,6-dimethylpyridine-3,5-dicarboxylate], the melting point was 173 to 174 °C.
With `CC1=C(C(=O)OC(C)(C)C)C(c2cccc(F)c2)C(C(=O)OC(C)(C)C)=C(C)N1` [Example 50, Di-tert-butyl 4-(3-fluorophenyl)-1,4-dihydro-2,6-dimethylpyridine-3,5-dicarboxylate] the melting point was 178 to 179 °C.
`CCOC(=O)C1=C(C)NC(C)=C(C(=O)OCC)C1c1ccc(F)cc1` [Example 51, Diethyl 4-(4-fluorophenyl)-1,4-dihydro-2,6-dimethylpyridine-3,5-dicarboxylate] showed a melting point of 150 to 151 °C.
For `CC1=C(C(=O)OC(C)(C)C)C(c2ccc(F)cc2)C(C(=O)OC(C)(C)C)=C(C)N1` [Example 52, Di-tert-butyl 4-(4-fluorophenyl)-1,4-dihydro-2,6-dimethylpyridine-3,5-dicarboxylate], the melting point was 149 to 150 °C.
In the case of `COCC1=C(C(=O)OC)C(c2ccc(Br)cc2)C(C(=O)OC)=C(COC)N1` [Example 53, Dimethyl 4-(4-bromophenyl)-1,4-dihydro-2,6-bis(methoxymethyl)pyridine-3,5-dicarboxylate], the melting point is reported as 162 to 163 °C.
With `CCOC(=O)C1=C(C)N(Cc2ccccc2)C(C)=C(C(=O)OCC)C1c1ccc(Br)cc1` [Example 54, Diethyl 1-benzyl-4-(4-bromophenyl)-1,4-dihydro-2,6-dimethylpyridine-3,5-dicarboxylate] the melting point was 168 to 169 °C.
`CC1=C(C(=O)OC(C)(C)C)C(c2ccc(C)cc2C)C(C(=O)OC(C)(C)C)=C(C)N1` [Example 55, Di-tert-butyl 1,4-dihydro-2,6-dimethyl-4-(2,4-dimethylphenyl)pyridine-3,5-dicarboxylate] gave a melting point of 197 to 198 °C.
With `CCOC(=O)C1=C(C)NC(C)=C(C(=O)OC)C1c1ccccc1Cl` (centres unmarked) [Example 56, 3-Ethyl 5-methyl 4-(2-chlorophenyl)-1,4-dihydro-2,6-dimethylpyridine-3,5-dicarboxylate] the melting point was 125 to 127 °C.
`COC(=O)C1=C(C)NC(C)=C(C(C)=O)C1c1ccccc1Cl` (centres unmarked) [Example 57, Methyl 5-acetyl-4-(2-chlorophenyl)-1,4-dihydro-2,6-dimethylpyridine-3-carboxylate] showed a melting point of 183 to 184 °C.
Work on `CCOC(=O)C1=C(C)NC(C)=C(C(=O)OC)C1c1ccccc1Br` (centres unmarked) [Example 58, 3-Ethyl 5-methyl 4-(2-bromophenyl)-I14-dihydro-2,6-dimethylpyridine-3,5-dicarboxylate] yielded a melting point of 134.5 to 135.5 °C.
Compound `COC(=O)C1=C(C)NC(C)=C(C(C)=O)C1c1ccccc1Br` (centres unmarked) [Example 59, Methyl 5-acetyl-4-(2-bromophenyl)-1,4-dihydro-2,6-dimethylpyridine-3-carboxylate] has a melting point of 146 to 148 °C.
For `Clc1ccc(C(c2ccc(Cl)cc2)[n+]2ccn(CC(OCc3ccc(Cl)cc3Cl)c3ccc(Cl)cc3Cl)c2)cc1.[Cl-]` (centres unmarked) [Example R24571, 1-[bis(p-chlorophenyl)methyl]-3-[2-(2,4-di-chloro-p-(2,4-dichlorobenzyl-oxy)phenethyl)]-imidazolium chloride], the “concentration of Aβ1-40 compared to controls” value ([1]; 5 μM (FIG. 4)) was “significantly decreased” and the “concentration of total β-amyloid compared to controls” value ([1]; 5 μM (FIG. 4)) was “significantly decreased”.
In the case of `C#CCN1C(C)=C(C(=O)OC)C(c2cccc([N+](=O)[O-])c2)C(C(=O)OCC)=C1C` (centres unmarked) [MRS 1845, N-propargylnitrendipine], the “concentration of Aβ1-40 compared to controls” value ([1]; 30 μM (FIG. 3)) is reported as “significantly decreased” and the “concentration of total β-amyloid compared to controls” value ([1]; 30 μM (FIG. 3)) is reported as “significantly decreased”.
For `COc1ccc(CCCOC(Cn2ccnc2)c2ccc(OC)cc2)cc1.Cl` (stereo not drawn) [SKF 96365, 1-[beta-[3-(4-methoxyphenyl)propoxy]-4-methoxyphenethyl]-1H-imidazole hydrochloride], the “concentration of Aβ1-40 compared to controls” value ([1]; 15 μM, 24 hours (FIG. 1B)) was “significantly decreased”, the “concentration of Aβ1-40 compared to controls” value ([1]; 30 μM (FIG. 2)) was “significantly decreased” and the “concentration of Aβ1-42 compared to controls” value ([1]; 30 μM (FIG. 2)) was “significantly decreased”. For the same compound, the “concentration of total β-amyloid compared to controls” value ([1]; 30 μM (FIG. 2)) was “significantly decreased” and the “concentration of Aβ1-40 compared to controls” value ([1]; 30 μM, 24 hours (FIG. 1B)) was “significantly decreased”.
In the case of `Clc1ccccc1C(c1ccccc1)(c1ccccc1)n1ccnc1` [clotrimazole], the “concentration of Aβ1-40 compared to controls” value ([1]; 20 μM (FIG. 4)) is reported as “significantly decreased” and the “concentration of total β-amyloid compared to controls” value ([1]; 20 μM (FIG. 4)) is reported as “significantly decreased”.
With `CN(C)C(=O)C(CCN1CCC(O)(c2ccc(Cl)cc2)CC1)(c1ccccc1)c1ccccc1` [loperamide] the “concentration of Aβ1-40 compared to controls” value ([1]; 30 μM (FIG. 4)) was “significantly decreased”, the “concentration of Aβ1-42 compared to controls” value ([1]; 30 μM (FIG. 4)) was “significantly decreased” and the “concentration of total β-amyloid compared to controls” value ([1]; 30 μM (FIG. 4)) was “significantly decreased”.
For `COC(=O)C1=C(C#N)NC(C)=C(C(=O)OC(C)C)C1c1cccc([N+](=O)[O-])c1` (centres unmarked) [nilvadipine], the “concentration of Aβ1-40 compared to controls” value ([1]; 30 μM (FIG. 3)) was “significantly decreased”, the “concentration of total β-amyloid compared to controls” value ([1]; 30 μM (FIG. 3)) was “significantly decreased” and the “concentration of Aβ1-40 compared to controls” value ([1]; 30 μM, 24 hours (FIG. 1B)) was “significantly decreased”. The “concentration of Aβ1-40 compared to controls” value [1, 2] was “significantly decreased” and the “concentration of Aβ1-40 compared to controls” value [1, 3] was “significantly decreased”.
In the case of `CCOC(=O)C1=C(C)NC(C)=C(C(=O)OC)C1c1cccc([N+](=O)[O-])c1` (centres unmarked) [nitrendipine], the “concentration of Aβ1-40 compared to controls” value ([1]; 30 μM (FIG. 3)) is reported as “significantly decreased”, the “concentration of total β-amyloid compared to controls” value ([1]; 30 μM (FIG. 3)) is reported as “significantly decreased” and the “concentration of Aβ1-40 compared to controls” value [1, 2] is reported as “significantly decreased”. The “concentration of Aβ1-40 compared to controls” value [1, 3] was “significantly decreased”.
For `COc1ccc2cc1Oc1ccc(cc1)C[C@H]1c3cc(c(OC)cc3CCN1C)Oc1c(OC)c(OC)cc3c1[C@H](C2)N(C)CC3` [tetrandine, tetrandrine], the “concentration of Aβ1-40 compared to controls” value ([1]; 5 μM (FIG. 4)) was “significantly decreased”, the “concentration of total β-amyloid compared to controls” value ([1]; 5 μM (FIG. 4)) was “significantly decreased” and the “concentration of Aβ1-40 compared to controls” value ([1]; 10 μM (FIG. 4)) was “significantly decreased”. For the same compound, the “concentration of total β-amyloid compared to controls” value ([1]; 10 μM (FIG. 4)) was “significantly decreased”, the “concentration of Aβ1-40 compared to controls” value ([1]; 20 μM (FIG. 4)) was “significantly decreased” and the “concentration of total β-amyloid compared to controls” value ([1]; 20 μM (FIG. 4)) was “significantly decreased”. The “concentration of Aβ1-40 compared to controls” value ([1]; 30 μM (FIG. 4)) was “significantly decreased” and the “concentration of total β-amyloid compared to controls” value ([1]; 30 μM (FIG. 4)) was “significantly decreased”.
